Measured values as given in patent publication US8420595B2, “Methods for treating acute acoustic trauma” (Oklahoma Medical Research Foundation, priority 2006, dated 2013).

Test system: AAT-induced hearing loss (six hours of 4 kHz octave band noise at 105 dB SPL)
Experiment: Acute acoustic trauma (AAT) in chinchillas, hearing levels by auditory brainstem response (ABR)
Format: in vivo, chinchilla
Details: every tested frequency
Method: With reference first to Tables 1-A, 1-B and 1-C, tests were conducted using six chinchillas for each experimental group and the control group. In these tests, the animals were exposed to AAT generated by six hours of noise exposure at 4 kHz octave band noise at 105 dB SPL. Treatments using 4-OHPBN (dosages of 10, 20, 50, and 75 mg/kg), ALCAR (dosages of 0, 20, 30, and 50 mg/kg), and NAC (50, 100, and 200 mg/kg) were given four hours after the AAT by intraperitoneal injection. Hearing levels were determined by auditory brainstem response (ABR) prior to the AAT event (baseline) and at 21 days post injection.
Table 3 depicts the results provided by treatment with a preferred embodiment of the current invention. In this embodiment, the AAT treatment therapy utilized a combination of 4-OHPBN (50 mg/kg) with NAC (100 mg/kg). Treatment consisted of intraperitoneal injection of the combined 4-OHPBN and NAC four hours after the AAT event. In this instance, six chinchillas were used for each test group. The animals were exposed to an AAT event produced by six hours of noise exposure at 4 kHz octave band noise at 105 dB SPL. Hearing levels reported in Table 3 were determined using the ABR method prior to the AAT event and 21 days post AAT. […] As indicated by the * each result was determined to be statistically significant and resulting from the treatment with the combination of 4-OHPBN and NAC. Statistical analysis was carried out using a one way ANOVA procedure and Post hoc test. While the above tests were conducted at the specified dosages, effective results should be realized at dosages between about 5 mg/kg and about 300 mg/kg for NAC and about 5 mg/kg and about 150 mg/kg for 4-OHPBN when NAC and 4-OHPBN are used in combination.
Table 4 depicts the results provided by treatment with another preferred embodiment of the current invention. The test for this embodiment utilized three test groups consisting of six chinchillas each. The chinchillas were exposed to an AAT event generated by a 105 dB narrow-band noise centered at 4 kHz for 6 hours. In this embodiment, the AAT treatment therapy utilized a combination of 4-OHPBN (20 mg/kg) with NAC (50 mg/kg) and ALCAR (20 mg/kg). Treatment consisted of intraperitoneal injection of the combined 4-OHPBN, NAC and ALCAR beginning four hours after noise exposure with injections repeated twice daily for the next two days. The control group was injected with carrier solution. Hearing levels reported in Table 4 were determined using the ABR method prior to the AAT event, immediately after the AAT event and 21 days after the AAT event.
Mean ABR threshold shifts were obtained and statistically analyzed using a two-way ANOVA procedure.

Compound	p (two way ANOVA and Post hoc test) vs control, ABR hearing level (ALCAR 30 mg/kg i.p. four hours after AAT)	p (two way ANOVA and Post hoc test) vs control, ABR hearing level (ALCAR 50 mg/kg i.p. four hours after AAT)	p (two way ANOVA and Post hoc test) vs control, ABR hearing level (NAC 100 mg/kg i.p. four hours after AAT)	p (two way ANOVA and Post hoc test) vs control, ABR hearing level (NAC 200 mg/kg i.p. four hours after AAT)
CC(=O)O[C@H](CC(=O)[O-])C[N+](C)(C)C [ALCAR, Acetyl-L-Carnitine]	< 0.05	< 0.05	–	–
CC(=O)N[C@@H](CS)C(=O)O [NAC, N-acetylcysteine]	–	–	< 0.05	< 0.05
